Measurements from patent publication US20250243176A1, “(S)-1-(1-ACRYLOYLPIPERIDIN-3-YL)-2-FLUORO-5,6,7,8,9,10-HEXAHYDROCYCLO HEPTA[B]INDOLE-4-CARBOXAMIDE, AND RELATED CRYSTALLINE FORMS, COMPOSITIONS, AND METHODS THEREOF” (GB005, Inc., priority 2021, published 2025).
Entries after “also recorded” stand apart in the source; their conditions may differ. Like-named read-outs stand apart in the source and are kept apart here.

How the values were obtained:
[1] = Phase 1 single ascending dose plasma pharmacokinetics; type: in vivo, human; conditions: for AUC(0-inf) / Cmax / half-life / Tmax: both sexes, human, plasma, fed; for AUC(0-inf) / Cmax: mean; for dose proportionality of exposure (AUCinf): single dose
Description: (§1) The study investigates the administration of Compound 1 to healthy human subjects, to evaluate the safety, tolerability and PK of single and multiple-escalating doses. Additional objectives include assessing the effect of formulation on PK, the effect of food on PK, the effect of a CYP3A inhibitor on PK and the effect of Compound 1 on CYP3A activity. PK parameters including AUC, AUC, Cmax, and Tmax are determined. An additional exploratory objective evaluates pharmacodynamics, as the time-course of BTK inhibition. The study is conducted with up to 144 healthy male and female subjects, aged 18-55 years, with a body weight over 48 kg, BMI 18.5-30.0 kg/m^2, with no clinically significant abnormalities.
Part A is a randomized, double-blind, placebo-controlled, single- and -multiple-dose study with staggered dose escalation, administered in the fed state (standard moderate-fat meal). Part A consists of […] (up to 7 single-ascending dose [SAD] cohorts [Cohorts 1-6 & 14], and up to 3 multiple ascending dose [MAD] cohorts [Cohorts 7-9]). Subjects are randomized in a 3:1 ratio per cohort to receive either: Compound 1 Formulation A (N=6 for Cohorts 1-4 and N=9 for Cohorts 5-9 & 14); or placebo (PBO; N=2 for Cohorts 1-4 and N=3 for Cohorts 5-9 & 14).
• Cohorts 1-4: Day 1, all subjects receive a single dose of Formulation A Compound 1 or placebo. • Cohorts 5, 6 & 14: Day −1, all subjects receive placebo (establish baseline ECG assessments). Day 1, subjects receive a single oral dose of Compound 1 or placebo.
(§2) Safety is assessed throughout the study and PK and PD are characterized using serial blood samples collected up to 48 hours post-dose for Compound 1 plasma concentrations, BTK target occupancy (TO) and target engagement (TE). Cerebrospinal fluid (CSF) samples are collected at 2 hours post-dose to characterize the relationship between Compound 1 plasma concentrations and CNS penetrance (CSF/Unbound plasma concentration). Compound 1 PK parameters (e.g., AUClast, AUCinf, Cmax, Tmax, t1/2) are estimated by standard noncompartmental methods.
Results: Preliminary pharmacokinetic results from […] are presented, including […] (7 receiving 5 mg, 8 receiving 15 mg, 8 receiving 45 mg, 8 receiving 5 mg+10 mg placebo, 12 receiving 100 mg and 12 receiving 200 mg: randomized in a 3:1 ratio to receive Compound 1 or placebo) in a fed state (moderate-fat meal). […] Preliminary PK parameters are presented in Table 45 (all pharmacokinetic parameters of Table 45 are reported as Mean (% coefficient of variation), except for Tmax and t/2, which are reported as Median (Min, Max)), and in FIG. 25 presenting the mean (SD) plasma concentration-time profiles of Compound 1.

[2] = CNS penetration (background statement)
Description: (§3) (S)-1-(1-acryloylpiperidin-3-yl)-2-fluoro-5,6,7,8,9,10-hexahydrocyclohepta[b]indole-4-carboxamide, hereinafter referred to as “Compound 1”, is an orally available, selective, potent inhibitor of Bruton's tyrosine kinase (BTK), thereby providing potential treatment options in BTK-driven diseases. The potency of Compound 1 for BTK inhibition is in the nM range in both cell-free enzymatic and whole blood functional assays.

TXK = target: T1, TXK (Homo sapiens, UniProt P42681); assay: Kinome scan, TXK; type: biochemical
T1 sequence (P42681 1-527): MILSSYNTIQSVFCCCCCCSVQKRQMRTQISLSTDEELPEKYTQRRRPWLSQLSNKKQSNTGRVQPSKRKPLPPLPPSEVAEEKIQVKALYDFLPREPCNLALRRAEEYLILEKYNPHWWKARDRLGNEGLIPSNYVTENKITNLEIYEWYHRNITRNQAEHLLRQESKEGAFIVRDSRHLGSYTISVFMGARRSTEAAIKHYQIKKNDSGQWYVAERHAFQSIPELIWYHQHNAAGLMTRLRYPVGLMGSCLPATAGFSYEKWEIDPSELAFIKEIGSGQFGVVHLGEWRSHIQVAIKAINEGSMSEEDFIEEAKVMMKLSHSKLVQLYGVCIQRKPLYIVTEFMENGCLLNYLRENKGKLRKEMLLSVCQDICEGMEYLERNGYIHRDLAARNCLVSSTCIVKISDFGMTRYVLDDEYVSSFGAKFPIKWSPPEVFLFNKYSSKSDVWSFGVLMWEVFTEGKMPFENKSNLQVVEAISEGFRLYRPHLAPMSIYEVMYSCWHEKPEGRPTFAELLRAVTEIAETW
Description: as §3

[3] = Phase 1 safety and tolerability; type: in vivo, human; conditions: healthy subjects, blinded safety data
Description: as §1
as §2, with “methods. […]” for “methods.”

[4] = oral, 5 mg, Cohort 1, 5 mg single dose
[5] = oral, 5 mg, Cohort 4, 5 mg (+10 PBO) single dose
[6] = oral, 15 mg, Cohort 2, 15 mg single dose
[7] = oral, 45 mg, Cohort 3, 45 mg single dose
[8] = oral, 100 mg, Cohort 5, 100 mg single dose
[9] = oral, 200 mg, Cohort 6, 200 mg single dose

AUC(0-inf) [1, 4]: 62.1 ng·h/mL | Cmax [1, 4]: 22.5 ng/mL | half-life ([1]; oral, 5 mg, Cohort 1, 5 mg single dose, median, read-out: T1/2 (converted)): 2.77 h | Tmax ([1]; oral, 5 mg, Cohort 1, 5 mg single dose, median, read-out: Tmax): 2 h | AUC(0-inf) [1, 5]: 121 ng·h/mL | Cmax [1, 5]: 36 ng/mL | half-life ([1]; oral, 5 mg, Cohort 4, 5 mg (+10 PBO) single dose, median, read-out: T1/2 (converted)): 3.33 h | Tmax ([1]; oral, 5 mg, Cohort 4, 5 mg (+10 PBO) single dose, median, read-out: Tmax): 1.75 h | AUC(0-inf) [1, 6]: 339 ng·h/mL | Cmax [1, 6]: 124 ng/mL | half-life ([1]; oral, 15 mg, Cohort 2, 15 mg single dose, median, read-out: T1/2 (converted)): 3.6 h | Tmax ([1]; oral, 15 mg, Cohort 2, 15 mg single dose, median, read-out: Tmax): 1 h | AUC(0-inf) [1, 7]: 859 ng·h/mL | Cmax [1, 7]: 283 ng/mL | half-life ([1]; oral, 45 mg, Cohort 3, 45 mg single dose, median, read-out: T1/2 (converted)): 3.4 h | Tmax ([1]; oral, 45 mg, Cohort 3, 45 mg single dose, median, read-out: Tmax): 1.5 h | AUC(0-inf) [1, 8]: 2290 ng·h/mL | Cmax [1, 8]: 555 ng/mL | half-life ([1]; oral, 100 mg, Cohort 5, 100 mg single dose, median, read-out: T1/2 (converted)): 4.29 h | Tmax ([1]; oral, 100 mg, Cohort 5, 100 mg single dose, median, read-out: Tmax): 1.5 h | AUC(0-inf) [1, 9]: 4480 ng·h/mL | Cmax [1, 9]: 814 ng/mL | half-life ([1]; oral, 200 mg, Cohort 6, 200 mg single dose, median, read-out: T1/2 (converted)): 4.5 h | Tmax ([1]; oral, 200 mg, Cohort 6, 200 mg single dose, median, read-out: Tmax): 3 h | Tmax ([1]; po, healthy subjects, single oral dose, SAD cohorts, read-out: mean plasma Tmax): 1 to 3 h | half-life ([1]; po, healthy subjects, single oral dose, SAD cohorts, read-out: terminal half-life): 3 to 4 h | dose proportionality of exposure (AUCinf) ([1]; from 5 to 15 mg): greater than dose-proportional | dose proportionality of exposure (AUCinf) ([1]; from 15 to 200 mg): near dose-proportional | CNS penetration [2]: penetrant | inhibition at 1 µM (TXK): > 50%
SMILES: C=CC(=O)N1CCC[C@@H](c2c(F)cc(C(N)=O)c3[nH]c4c(c23)CCCCC4)C1 [Compound 1, (S)-1-(1-acryloylpiperidin-3-yl)-2-fluoro-5,6,7,8,9,10-hexahydrocyclohepta[b]indole-4-carboxamide]
safety and tolerability ([3]; MAD cohort, 15 mg once daily for 10 days, fed): generally well tolerated with no serious adverse events or early study discontinuations reported | safety and tolerability ([3]; SAD cohorts, single dose 5 to 200 mg, fed (moderate-fat meal)): generally well tolerated with no serious adverse events or early study discontinuations reported; also recorded: well tolerated across the dose range
